According to patent US20190321420A1, “METHOD AND COMPOSITION FOR PREVENTING, TREATING OR RELIEVING BONE DISEASES” (GRAPE KING BIO Ltd., priority 2018, published 2019):
Marks after values point to notes of the source that are not given here.

Tests used:
[1] = system: ovariectomized ICR female mice; assay: Bone mineral density (BMD) of the femur in ovariectomized mice; assay type: in vivo; details: right femur, 32nd day after ovariectomy; GKM3/GKS6 205 mg/kg oral gavage once/day for 28 days; Alen 2.5 mg/kg 3 times a week for 28 days; n = 6
Protocol: In this embodiment, GKM3 and GKS6 powders were each prepared in a 0.5% (w/v) carboxymethylcellulose (CMC) solution as a suspension with a concentration of 205 mg/mL The vehicle group used 0.5% (w/v) CMC solution.
Because bone metabolism is closely related to estrogen, mice with bilateral ovariectomy were used as a model for studying osteoporosis in postmenopausal animals. After the recovery period of 1 to 2 weeks after the bilateral ovariectomy, mice were randomly assigned to different treatment groups.
In this embodiment, 8-week-old ICR female mice were purchased from BioLASCO Taiwan Co., Ltd., and ovariectomy (OVX) was performed when they were 9 weeks old. […]
Computerized tomography images of the right distal femur of ICR mice were obtained by a micro-computed tomography (micro-CT) scanner (SkyScan 1076, Kontizh, Belgium) with a resolution of 18 μm and were analyzed by a software to obtain the trabecular bone volume density (i.e., bone volume/tissue volume, BV/TV), the trabecular thickness (Tb.Th), the trabecular number (Tb.N), and the trabecular spacing (Tb.Sp). The analyzed position was selected to include the area of 100 pieces under the growth plate but not the cortical bone. […]
The bone density (mass/volume) was detected by the micro-CT. […]
The obtained data in the experiments were analyzed with one-way analysis of variance (one-way ANOVA) and the Duncan's multiple range test. […]

[2] = system: ovariectomized ICR female mice; assay: Micro-CT bone tissue analysis of the right distal femur in ovariectomized mice (osteoporosis model); assay type: in vivo; details: 32nd day after ovariectomy, GKM3/GKS6 205 mg/kg oral gavage once/day for 28 days, Alen 2.5 mg/kg 3 times a week for 28 days, n = 6

NCCCC(O)(P(=O)(O)O)P(=O)(O)O [Alen, alendronate]
Femur BMD [1]: 0.60 ± 0.02* g/cm^3
Femur Tb.N [2]: 3.3 ± 0.1 No./mm
Femur Tb.Sp [2]: 232.9 ± 25.9 μm
Femur Tb.Th [2]: 109.9 ± 3.9 μm
